US12083191B2, “Composition and methods for imaging cells” (CASE WESTERN RESERVE UNIVERSITY, priority 2009, dated 2024)

Assay: solution-based β-gal activity assay (ONPG hydrolysis)
Format: biochemical
Procedure: For the solution-based activity assay, β-gal fragments were added, either individually or in complementing pairs, to uncoated 96-well microtiter assay plates in equal molar amounts and incubated at room temperature on an orbital rocker for 1 hr. Full-length β-gal (1 mg/ml) was serially diluted to create a standardized concentration curve. At time zero, the assay was initiated by using a 12-channel pipettor to add 20 μl of ONPG (4 mg/ml) to each well of the microplate. In the endpoint assay, the microplates were incubated at room temperature for the appropriate length of time, e.g., 30 min, before the reaction was terminated by the addition of 50 μl of 1 M Na2CO3. Then, the absorbance (420 nm) was read in a Tecan Infinite 200 plate reader (Tecan; San Jose, CA). The absorbance data was transferred to a Microsoft Excel spreadsheet and the amount of ONPG substrate hydrolyzed was calculated.
To test the ability of the split-fragments to spontaneously refold and aggregate into tetramers in solution, complementing pairs of β-gal fragments were combined and assessed in a solution-based activity assay. Levels of active β-gal expression were measured by its catalytic hydrolysis of ortho-nitrophenyl-β-D-galactopyranoside (ONPG), a synthetic chromogenic substrate, to orthonitrophenol (ONP), a yellow product (λmax=420 nm). […]

Full length β-gal: purified full length biotinylated E. coli β-galactosidase prepared in the laboratory, 135 kDa
time at which optimally active (19 hour incubation period, FIG. 7C): 30 min
enzyme activity versus commercially available purchased β-gal (increasing amounts of enzyme, FIG. 7A): virtually identical
